Assay results reported in patent publication US11285127B2, “Compositions and methods for lowering triglycerides without raising LDL-C levels in a subject on concomitant statin therapy” (Amarin Pharmaceuticals Ireland Limited, priority 2013, dated 2022).

System: patients with fasting triglyceride levels >200 mg/dl and <500 mg/dl despite statin therapy
Experiment: 12-week study: lipid profile (TC, LDL-C, HDL-C, non-HDL-C, VLDL-C, VLDL-TG, RLP-C)
Assay type: in vivo, human
Details: MITT
Source text: Parameters (a)-(z) can be measured in accordance with any clinically acceptable methodology. For example, triglycerides, total cholesterol, HDL-C and fasting blood sugar can be sample from serum and analyzed using standard photometry techniques. VLDL-TG, LDL-C and VLDL-C can be calculated or determined using serum lipoprotein fractionation by preparative ultracentrifugation and subsequent quantitative analysis by refractometry or by analytic ultracentrifugal methodology. Apo A1, Apo B and hsCRP can be determined from serum using standard nephelometry techniques. Lipoprotein (a) can be determined from serum using standard turbidimetric immunoassay techniques. LDL particle number and particle size can be determined using nuclear magnetic resonance (NMR) spectrometry. Remnants lipoproteins and LDL-phospholipase A2 can be determined from EDTA plasma or serum and serum, respectively, using enzymatic immunoseparation techniques. Oxidized LDL, intercellular adhesion molecule-1 and interleukin-2 levels can be determined from serum using standard enzyme immunoassay techniques. These techniques are described in detail in standard textbooks, for example Tietz Fundamentals of Clinical Chemistry, 6th Ed. (Burtis, Ashwood and Borter Eds.), WB Saunders Company.
A multi-center, placebo-controlled, randomized, double-blind, 12-week study was performed to evaluate the efficacy and safety of >96% E-EPA in patients with fasting triglyceride levels >200 mg/dl and <500 mg/dl despite statin therapy (the mean of two qualifying entry values needed to be >185 mg/dl and at least one of the values needed to be >200 mg/dl). The primary objective of the study was to determine the efficacy of >96% E-EPA 2 g daily and 4 g daily, compared to placebo, in lowering fasting TG levels in patients with high risk for cardiovascular disease and with fasting TG levels 200 mg/dl and <500 mg/dl, despite treatment to LDL-C goal on statin therapy.
The secondary objectives of this study were the following: • 1. To determine the safety and tolerability of >96% E-EPA 2 g daily and 4 g daily; • 2. To determine the effect of >96% E-EPA on lipid and apolipoprotein profiles including total cholesterol (TC), non-high-density lipoprotein cholesterol (non-HDL-C), low density lipoprotein cholesterol (LDL-C), high density lipoprotein cholesterol (HDL-C), and […]; • 3. To determine the effect of >96% E-EPA on lipoprotein associated phospholipase A2 (Lp-PLA2) from baseline to week 12; • 4. To determine the effect of >96% E-EPA on low-density lipoprotein (LDL) particle number and size; • 5. To determine the effect of >96% E-EPA on oxidized LDL; • 6. To determine the effect of >96% E-EPA on fasting plasma glucose (FPG) and hemoglobin A1c (HbA1c); • 7. To determine the effect of >96% E-EPA on insulin resistance; • 8. To determine the effect of >96% E-EPA on high-sensitivity C-reactive protein (hsCRP); • 9. To determine the effects of >96% E-EPA 2 g daily and 4 g daily on the incorporation of fatty acids into red blood cell membranes and into plasma phospholipids; • 10. To explore the relationship between baseline fasting TG levels and the reduction in fasting TG levels; and • 11. To explore the relationship between changes of fatty acid concentrations in plasma and red blood cell membranes, and the reduction in fasting TG levels.
The primary efficacy variable for the double-blind treatment period was percent change in TG from baseline to Week 12 endpoint. […]

[1] = AMR 101 2 g + statin, Atorva subgroup
[2] = AMR 101 2 g + statin, Rosuva subgroup
[3] = AMR 101 2 g + statin, Simva subgroup
[4] = AMR 101 2 g + statin, Statin Potency High
[5] = AMR 101 2 g + statin, Statin Potency Low
[6] = AMR 101 2 g + statin, Statin Potency Medium
[7] = AMR 101 2 g + statin, Diabetes No, Week 12 endpoint
[8] = AMR 101 2 g + statin, Diabetes Yes, Week 12 endpoint
[9] = AMR 101 2 g + statin, Non-statin Washout No, Week 12 endpoint
[10] = AMR 101 2 g + statin, Non-statin Washout Yes, Week 12 endpoint
[11] = AMR 101 2 g + statin, baseline TG tertile Highest (≥289.5 mg/dL), Week 12 endpoint
[12] = AMR 101 2 g + statin, baseline TG tertile Lowest (<230.5 mg/dL), Week 12 endpoint
[13] = AMR 101 2 g + statin, baseline TG tertile Middle (230.5 to <289.5 mg/dL), Week 12 endpoint
[14] = AMR101 2 g/d + statin, Week 12 endpoint
[15] = AMR101 2 g/d + statin, percent change from baseline to Week 12 endpoint
[16] = AMR 101 4 g + statin, Atorva subgroup

In the case of `CC/C=C\C/C=C\C/C=C\C/C=C\C/C=C\CCCC(=O)OCC` [AMR101, ethyl eicosapentaenoate], the “LDL-C Median % chg from BL” value [1] is reported as 4.9%, the “LDL-C, Diff from pbo (Hodges-Lehmann median difference)” value [1] is reported as 1.1 and the “LDL-C, EOT (Week 12 endpoint) median” value [1] is reported as 88.0. The “Non-HDL-C Median % chg from BL” value [1] was 10.5%, the “Non-HDL-C, Diff from pbo (Hodges-Lehmann median difference)” value [1] was 2.0 and the “Non-HDL-C, EOT (Week 12 endpoint) median” value [1] was 135.0. For the same compound, the “LDL-C Median % chg from BL” value [2] was 4.3%, the “LDL-C, Diff from pbo (Hodges-Lehmann median difference)” value [2] was −4.2 and the “LDL-C, EOT (Week 12 endpoint) median” value [2] was 87.0. For the same compound, the “Non-HDL-C Median % chg from BL” value [2] was 2.7%, the “Non-HDL-C, Diff from pbo (Hodges-Lehmann median difference)” value [2] was −9.0 and the “Non-HDL-C, EOT (Week 12 endpoint) median” value [2] was 133.0. For the same compound, the “LDL-C Median % chg from BL” value [3] was 1.8%, the “LDL-C, Diff from pbo (Hodges-Lehmann median difference)” value [3] was −4.8 and the “LDL-C, EOT (Week 12 endpoint) median” value [3] was 88.0. For the same compound, the “Non-HDL-C Median % chg from BL” value [3] was 0.0%, the “Non-HDL-C, Diff from pbo (Hodges-Lehmann median difference)” value [3] was −6.8 and the “Non-HDL-C, EOT (Week 12 endpoint) median” value [3] was 133.5. The “LDL-C Median % chg from BL” value [4] was 3.1%, the “LDL-C, Diff from pbo (Hodges-Lehmann median difference)” value [4] was −1.7 and the “LDL-C, EOT (Week 12 endpoint) median” value [4] was 91.0. The “Non-HDL-C Median % chg from BL” value [4] was 5.4%, the “Non-HDL-C, Diff from pbo (Hodges-Lehmann median difference)” value [4] was −3.5 and the “Non-HDL-C, EOT (Week 12 endpoint) median” value [4] was 142. The “LDL-C Median % chg from BL” value [5] was 0.9%, the “LDL-C, Diff from pbo (Hodges-Lehmann median difference)” value [5] was 7.1 and the “LDL-C, EOT (Week 12 endpoint) median” value [5] was 95.0. For the same compound, the “Non-HDL-C Median % chg from BL” value [5] was −2.2%, the “Non-HDL-C, Diff from pbo (Hodges-Lehmann median difference)” value [5] was 3.3 and the “Non-HDL-C, EOT (Week 12 endpoint) median” value [5] was 135. The “LDL-C Median % chg from BL” value [6] was 2.4%, the “LDL-C, Diff from pbo (Hodges-Lehmann median difference)” value [6] was −5.9 and the “LDL-C, EOT (Week 12 endpoint) median” value [6] was 85.0. The “Non-HDL-C Median % chg from BL” value [6] was 1.7%, the “Non-HDL-C, Diff from pbo (Hodges-Lehmann median difference)” value [6] was −7.1 and the “Non-HDL-C, EOT (Week 12 endpoint) median” value [6] was 133. For the same compound, the “LDL-C Diff from pbo (median % chg, Hodges-Lehmann)” value [7] was −3.1%, the “LDL-C EOT Median” value [7] was 88.0 mg/dL and the “LDL-C Median % chg from BL” value [7] was 2.6%. For the same compound, the “Non-HDL-C Diff from pbo (median % chg, Hodges-Lehmann)” value [7] was −8.6%, the “Non-HDL-C EOT Median” value [7] was 133 mg/dL and the “Non-HDL-C Median % chg from BL” value [7] was −0.7%. For the same compound, the “LDL-C Diff from pbo (median % chg, Hodges-Lehmann)” value [8] was −3.8%, the “LDL-C EOT Median” value [8] was 87.0 mg/dL and the “LDL-C Median % chg from BL” value [8] was 2.2%. For the same compound, the “Non-HDL-C Diff from pbo (median % chg, Hodges-Lehmann)” value [8] was −4.4%, the “Non-HDL-C EOT Median” value [8] was 135 mg/dL and the “Non-HDL-C Median % chg from BL” value [8] was 5.1%. For the same compound, the “LDL-C Diff from pbo (median % chg, Hodges-Lehmann)” value [9] was −1.2%, the “LDL-C EOT Median” value [9] was 91.5 mg/dL and the “LDL-C Median % chg from BL” value [9] was 3.5%. For the same compound, the “Non-HDL-C Diff from pbo (median % chg, Hodges-Lehmann)” value [9] was −4.6%, the “Non-HDL-C EOT Median” value [9] was 135 mg/dL and the “Non-HDL-C Median % chg from BL” value [9] was 3.8%. For the same compound, the “LDL-C Diff from pbo (median % chg, Hodges-Lehmann)” value [10] was −6.3%, the “LDL-C EOT Median” value [10] was 85.0 mg/dL and the “LDL-C Median % chg from BL” value [10] was 2.2%. The “Non-HDL-C Diff from pbo (median % chg, Hodges-Lehmann)” value [10] was −6.9%, the “Non-HDL-C EOT Median” value [10] was 133 mg/dL and the “Non-HDL-C Median % chg from BL” value [10] was 0.0%. For the same compound, the “LDL-C Diff from pbo (median % chg, Hodges-Lehmann)” value [11] was −2.0%, the “LDL-C EOT Median” value [11] was 85.0 and the “LDL-C Median % chg from BL” value [11] was 1.7%. For the same compound, the “Non-HDL-C Diff from pbo (median % chg, Hodges-Lehmann)” value [11] was −5.0%, the “Non-HDL-C EOT Median” value [11] was 150 and the “Non-HDL-C Median % chg from BL” value [11] was 3.0%. For the same compound, the “LDL-C Diff from pbo (median % chg, Hodges-Lehmann)” value [12] was −5.7%, the “LDL-C EOT Median” value [12] was 92.0 and the “LDL-C Median % chg from BL” value [12] was 3.1%. The “Non-HDL-C Diff from pbo (median % chg, Hodges-Lehmann)” value [12] was −4.2%, the “Non-HDL-C EOT Median” value [12] was 129 and the “Non-HDL-C Median % chg from BL” value [12] was 6.9%. For the same compound, the “LDL-C Diff from pbo (median % chg, Hodges-Lehmann)” value [13] was −2.6%, the “LDL-C EOT Median” value [13] was 86.5 and the “LDL-C Median % chg from BL” value [13] was 3.1%. The “Non-HDL-C Diff from pbo (median % chg, Hodges-Lehmann)” value [13] was −7.0%, the “Non-HDL-C EOT Median” value [13] was 132 and the “Non-HDL-C Median % chg from BL” value [13] was −1.2%. The “HDL-C Week 12 EP Median (IQR)” value (AMR101 2 g/d + statin) was 38.0 (11.0) mg/dL, the “LDL-C Week 12 EP Median (IQR)” value (AMR101 2 g/d + statin) was 87.0 (27.0) mg/dL and the “Non-HDL-C Week 12 EP Median (IQR)” value (AMR101 2 g/d + statin) was 134.0 (41.0) mg/dL. For the same compound, the “RLP-C Week 12 EP Median (IQR)” value (AMR101 2 g/d + statin) was 11.0 (7.0) mg/dL, the “Total cholesterol Week 12 EP Median (IQR)” value (AMR101 2 g/d + statin) was 175.0 (44.0) mg/dL and the “VLDL-C Week 12 EP Median (IQR)” value (AMR101 2 g/d + statin) was 44.0 (25.0) mg/dL. The “VLDL-TG Week 12 EP Median (IQR)” value (AMR101 2 g/d + statin) was 168.0 (98.0) mg/dL, the “HDL-C Percent change from Baseline Median (IQR)” value [14] was 0 (19.5) % and the “LDL-C Percent change from Baseline Median (IQR)” value [14] was 2.4 (26.1) %. For the same compound, the “Non-HDL-C Percent change from Baseline Median (IQR)” value [14] was 2.4 (26.1) %, the “RLP-C Percent change from Baseline Median (IQR)” value [14] was −11.1 (40.0) % and the “Total cholesterol Percent change from Baseline Median (IQR)” value [14] was 2.1 (19.6) %. The “VLDL-C Percent change from Baseline Median (IQR)” value [14] was 1.6 (54.6) %, the “VLDL-TG Percent change from Baseline Median (IQR)” value [14] was −2.1 (48.9) % and the “HDL-C Difference from placebo Estimated median” value [15] was −2.2%. For the same compound, the “LDL-C Difference from placebo Estimated median” value [15] was −3.6%, the “Non-HDL-C Difference from placebo Estimated median” value [15] was −5.5% and the “RLP-C Difference from placebo Estimated median” value [15] was −16.7%. The “Total cholesterol Difference from placebo Estimated median” value [15] was −4.8%, the “VLDL-C Difference from placebo Estimated median” value [15] was −10.5% and the “VLDL-TG Difference from placebo Estimated median” value [15] was −11.3%. The “LDL-C Median % chg from BL” value [16] was 9.0%, the “LDL-C, Diff from pbo (Hodges-Lehmann median difference)” value [16] was 2.5 and the “LDL-C, EOT (Week 12 endpoint) median” value [16] was 82.5. For the same compound, the “Non-HDL-C Median % chg from BL” value [16] was −6.3%.
